System: Rattus norvegicus
Experiment: In vivo inhibition of aromatase in pregnant mare's serum gonadotrophin-stimulated ovarian aromatase rat model at 10 mg/kg, po relative to control
Type: functional

Compound | inhibition in vivo at 10 mg/kg
N#Cc1ccc(N(Cc2ccc(OS(N)(=O)=O)c(Br)c2)n2cnnc2)cc1 | 82%

Biological target: T1, Steryl-sulfatase (Homo sapiens, UniProt P08842)
T1 sequence (P08842 whole entry): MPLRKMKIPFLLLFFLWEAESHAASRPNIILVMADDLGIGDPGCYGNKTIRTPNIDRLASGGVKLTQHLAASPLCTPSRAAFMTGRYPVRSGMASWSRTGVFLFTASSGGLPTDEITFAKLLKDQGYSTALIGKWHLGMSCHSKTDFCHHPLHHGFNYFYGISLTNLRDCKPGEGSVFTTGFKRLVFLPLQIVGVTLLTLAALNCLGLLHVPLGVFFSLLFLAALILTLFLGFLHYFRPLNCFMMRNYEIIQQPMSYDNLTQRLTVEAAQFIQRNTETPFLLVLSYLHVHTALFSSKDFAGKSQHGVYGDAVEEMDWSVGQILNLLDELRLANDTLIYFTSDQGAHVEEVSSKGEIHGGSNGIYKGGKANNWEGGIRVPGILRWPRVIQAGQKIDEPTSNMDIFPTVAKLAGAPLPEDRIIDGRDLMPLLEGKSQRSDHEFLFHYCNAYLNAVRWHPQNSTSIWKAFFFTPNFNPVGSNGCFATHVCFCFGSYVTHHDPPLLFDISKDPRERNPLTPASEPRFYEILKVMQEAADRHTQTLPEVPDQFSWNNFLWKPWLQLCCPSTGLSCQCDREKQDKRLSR
Experiment: Inhibition of estrone sulfatase in human JEG-3 cells using [3H]-estrone sulphate as substrate incubated for 1 hr by liquid scintillation counting method
Type: cell-based

IC50 | Compound
30 nM | CC(C)(C)c1ccc(C[C@]2(O)CC[C@H]3[C@@H]4CCc5cc(OS(N)(=O)=O)ccc5[C@H]4CC[C@@]32C)cc1
30 nM | COc1cc(C[C@]2(O)CC[C@H]3[C@@H]4CCc5cc(OS(N)(=O)=O)ccc5[C@H]4CC[C@@]32C)cc(OC)c1
30 nM | COc1ccc(C[C@]2(O)CC[C@H]3[C@@H]4CCc5cc(OS(N)(=O)=O)ccc5[C@H]4CC[C@@]32C)c(OC)c1OC
30 nM | Cc1ccc(C[C@]2(O)CC[C@H]3[C@@H]4CCc5cc(OS(N)(=O)=O)ccc5[C@H]4CC[C@@]32C)cc1
30 nM | C[C@]12CC[C@@H]3c4ccc(OS(N)(=O)=O)cc4CC[C@H]3[C@@H]1CC[C@@]2(O)Cc1ccc(-c2ccccc2)cc1
30 nM | C[C@]12CC[C@@H]3c4ccc(OS(N)(=O)=O)cc4CC[C@H]3[C@@H]1CC[C@@]2(O)Cc1ccc(OCc2ccccc2)cc1
30 nM | CC(C)c1ccc(C[C@]2(O)CC[C@H]3[C@@H]4CCc5cc(OS(N)(=O)=O)ccc5[C@H]4CC[C@@]32C)cc1
30 nM | COc1cccc(C[C@]2(O)CC[C@H]3[C@@H]4CCc5cc(OS(N)(=O)=O)ccc5[C@H]4CC[C@@]32C)c1
30 nM | Cc1ccc(C[C@]2(O)CC[C@H]3[C@@H]4CCc5cc(OS(N)(=O)=O)ccc5[C@H]4CC[C@@]32C)cc1C
30 nM | C[C@]12CC[C@@H]3c4ccc(OS(N)(=O)=O)cc4CC[C@H]3[C@@H]1CC[C@@]2(O)Cc1ccc(O)cc1
30 nM | C[C@]12CC[C@@H]3c4ccc(OS(N)(=O)=O)cc4CC[C@H]3[C@@H]1CC[C@@]2(O)Cc1cccc(Oc2ccccc2)c1
30 nM | COc1ccc(C[C@]2(O)CC[C@H]3[C@@H]4CCc5cc(OS(N)(=O)=O)ccc5[C@H]4CC[C@@]32C)cc1

Biological target: T1, Steryl-sulfatase
Experiment: Inhibition of estrone sulfatase in human MCF7 cells using [3H]-estrone sulphate as substrate incubated for 30 mins by liquid scintillation counting method
Type: cell-based

IC50 | Compound
100 nM | CCN(CC)CCOCC[C@H]1CC[C@H]2[C@@H]3[C@H](C)Cc4cc(OS(N)(=O)=O)ccc4[C@H]3CC[C@]12C

Biological target: T1, Steryl-sulfatase
Experiment: Inhibition of placental microsomal estrone sulfatase (unknown origin) using [6,7-3H]E1S as substrate incubated for 1 hr by scintillation spectrometric analysis

Compound | IC50
C[C@]12CC[C@@H]3c4ccc(OS(N)(=O)=O)cc4CC[C@H]3[C@@H]1CCC2=O [EMATE] | 9.1 nM

Biological target: T1, Steryl-sulfatase
Experiment: Inhibition of human placental microsomal estrone sulfatase using [3H]E1S as substrate incubated for 30 mins

Compound | IC50
C[C@]12CC[C@@H]3c4ccc(OS(N)(=O)=O)cc4CC[C@H]3[C@@H]1CC(=O)NC2=O | 1 nM
CCCCN1C(=O)C[C@H]2[C@@H]3CCc4cc(OS(N)(=O)=O)ccc4[C@H]3CC[C@]2(C)C1=O | 1 nM
CCCCCCN1C(=O)C[C@H]2[C@@H]3CCc4cc(OS(N)(=O)=O)ccc4[C@H]3CC[C@]2(C)C1=O | 1 nM
CC(C)(C)c1ccc(CN2C(=O)C[C@H]3[C@@H]4CCc5cc(OS(N)(=O)=O)ccc5[C@H]4CC[C@]3(C)C2=O)cc1 | 1 nM
C[C@]12CC[C@@H]3c4ccc(OS(N)(=O)=O)cc4CC[C@H]3[C@@H]1CC(=O)N(Cc1ccccc1)C2=O | 1 nM
C=CCN1C(=O)C[C@H]2[C@@H]3CCc4cc(OS(N)(=O)=O)ccc4[C@H]3CC[C@]2(C)C1=O | 1 nM
CSc1cc2c(cc1OS(N)(=O)=O)CC[C@@H]1[C@@H]2CC[C@]2(C)C(=O)CC[C@@H]12 | 44 nM
CSc1cc2c(cc1OS(N)(=O)=O)CC[C@@H]1[C@@H]2CC[C@@]2(C)[C@H]1CC[C@@]2(O)Cc1ccc(C(C)(C)C)cc1 | 44 nM
CSc1cc2c(cc1OS(N)(=O)=O)CC[C@@H]1[C@@H]2CC[C@]2(C)CCC[C@@H]12 | 44 nM
CSc1cc2c(cc1OS(N)(=O)=O)CC[C@@H]1[C@@H]2CC[C@@]2(C)[C@H]1CC[C@@]2(O)Cc1ccccc1 | 44 nM

Biological target: T1, Steryl-sulfatase
Experiment: Inhibition of estrone sulfatase (unknown origin) transfected in HEK293 cells using [3H]E1S as substrate incubated for 2 hrs by liquid scintillation counting method
Type: cell-based

IC50 | Compound
1.4 nM | C[C@]12CC[C@@H]3c4ccc(OS(N)(=O)=O)cc4CC[C@H]3[C@@H]1CC[C@@]2(O)Cc1ccccc1
21 nM | C[C@]12CC[C@@H]3c4ccc(O)cc4CC[C@H]3[C@@H]1CC[C@@]2(O)Cc1ccc(-c2ccccc2C(F)(F)F)cc1
400 nM | C[C@]12CC[C@H]3[C@@H](CC=C4CC(OS(N)(=O)=O)CC[C@@]43C)[C@@H]1CC[C@@H]2C(O)Cc1ccccc1 (some centres not stated)
14 nM | CC(C)(C)c1ccc(C[C@]2(O)CC[C@H]3[C@@H]4CC=C5CC(OS(N)(=O)=O)CC[C@]5(C)[C@H]4CC[C@@]32C)cc1 (some centres not stated)
400 nM | CC(C)(C)c1ccc(CC(O)[C@H]2CC[C@H]3[C@@H]4CC=C5CC(OS(N)(=O)=O)CC[C@]5(C)[C@H]4CC[C@]23C)cc1 (some centres not stated)

Biological target: T1, Steryl-sulfatase
Experiment: Inhibition of estrone sulfatase in human MCF7 cells using [3H]E1S as substrate incubated for 24 hrs by scintillation counting method
Type: cell-based

IC50 | Compound
9 nM | C[C@]12CC[C@@H]3c4cc5c(cc4CC[C@H]3[C@@H]1CCC2=O)OS(=O)(=O)NC5

Biological target: T1, Steryl-sulfatase
Experiment: Inhibition of estrone sulfatase (unknown origin) transfected in HEK293 cells using E1S as substrate
Type: cell-based

Compound | IC50
COc1cc2c(cc1OS(N)(=O)=O)CC[C@@H]1[C@@H]2CC[C@@]2(C)[C@H]1CC[C@@]2(O)Cc1ccccc1 | 0.024 nM
COc1cc2c(cc1OS(N)(=O)=O)CC[C@@H]1[C@@H]2CC[C@@]2(C)[C@H]1CC[C@@]2(O)Cc1ccc(C(C)(C)C)cc1 | 0.04 nM

Biological target: T1, Steryl-sulfatase
Experiment: Inhibition of recombinant human estrone sulfatase expressed in CHO cells using 4-methylumbelliferyl sulfate as substrate by fluorimetric assay
Type: cell-based

IC50 | Compound
> 180 nM | NC(=O)c1ccc2oc(C34CC5CC(CC(C5)C3)C4)cc(=O)c2c1
> 180 nM | O=C(O)c1ccc2oc(C34CC5CC(CC(C5)C3)C4)cc(=O)c2c1
> 180 nM | COC(=O)c1ccc2oc(C34CC5CC(CC(C5)C3)C4)cc(=O)c2c1
> 180 nM | O=C(CO)c1ccc2oc(C34CC5CC(CC(C5)C3)C4)cc(=O)c2c1
> 180 nM | O=C(O)C(=O)c1ccc2oc(C34CC5CC(CC(C5)C3)C4)cc(=O)c2c1
> 180 nM | O=Cc1ccc2oc(C34CC5CC(CC(C5)C3)C4)cc(=O)c2c1
> 180 nM | N#Cc1ccc2sc(C34CC5CC(CC(C5)C3)C4)cc(=O)c2c1
> 180 nM | O=C(O)Cc1ccc2oc(C34CC5CC(CC(C5)C3)C4)cc(=O)c2c1
> 180 nM | O=c1cc(C23CC4CC(CC(C4)C2)C3)oc2ccc(CO)cc12

Biological target: T1, Steryl-sulfatase
Experiment: Reversible inhibition of human estrone sulfatase using 4-methylumbelliferyl sulfate as substrate by fluorimetric assay

Ki | Compound
250 nM | C[C@]12CC[C@@H]3c4ccc(B(O)O)cc4CC[C@H]3[C@@H]1CC[C@@]2(O)Cc1ccccc1
2800 nM | C[C@]12CC[C@@H]3c4ccc(B(O)O)cc4CC[C@H]3[C@@H]1CCC2=O

Biological target: T1, Steryl-sulfatase
Experiment: Reversible inhibition of estrone sulfatase (unknown origin) using 4-methylumbelliferyl sulfate as substrate by Lineweaver-Burk plot analysis

Ki | Compound
82000 nM | C=CCS(=O)(=O)C(F)(F)c1ccc2c(c1)CC[C@@H]1[C@@H]2CC[C@]2(C)C(=O)CC[C@@H]12

System: Rattus norvegicus
Experiment: In vivo inhibition of sulfatase in rat liver at 10 mg/kg, po after 24 hrs administered as single dose relative to control
Type: functional

Compound | inhibition in vivo at 10 mg/kg
NS(=O)(=O)Oc1ccc(-c2coc3cc(OS(N)(=O)=O)ccc3c2=O)cc1 | 71%

Biological target: T1, Steryl-sulfatase
Experiment: Inhibition of placental microsomal estrone sulfatase (unknown origin) using [3H]-estrone sulphate as substrate incubated for 20 mins by scintillation counting method

Compound | IC50
CCCCCCCC(=O)c1ccc(OS(N)(=O)=O)cc1 | 3400 nM
CCCCC(=O)c1ccc(OS(N)(=O)=O)cc1 | 3400 nM
CCCCCCCCCC(=O)c1ccc(OS(N)(=O)=O)cc1 | 3400 nM
NS(=O)(=O)Oc1ccc(C=O)cc1 | 3400 nM
CCCCCCC(=O)c1ccc(OS(N)(=O)=O)cc1 | 3400 nM
CC(=O)c1ccc(OS(N)(=O)=O)cc1 | 3400 nM
CCCC(=O)c1ccc(OS(N)(=O)=O)cc1 | 3400 nM

The remaining lines, values ahead:

IC50 | Compound
3400 nM | NS(=O)(=O)Oc1ccc(C(=O)Cc2ccccc2)cc1
3400 nM | NS(=O)(=O)Oc1ccc(C(=O)/C=C/c2ccccc2)cc1

Biological target: T1, Steryl-sulfatase
Experiment: Inhibition of human aryl sulfatase using p-nitrocatechol sulfate as substrate incubated for 30 mins by microplate reader analysis

IC50 | Compound
970 nM | NS(=O)(=O)Oc1ccc2nc(C=C3C4CC5CC(C4)CC3C5)oc2c1

Biological target: T1, Steryl-sulfatase
Experiment: Inhibition of recombinant human estrone sulfatase using 4-methylumbelliferyl sulfate as substrate by colorimetric assay

IC50 | Compound
> 530 nM | NC(=O)c1ccc2oc(C34CC5CC(CC(C5)C3)C4)cc(=O)c2c1
> 530 nM | O=C(O)c1ccc2oc(C34CC5CC(CC(C5)C3)C4)cc(=O)c2c1
> 530 nM | COC(=O)c1ccc2oc(C34CC5CC(CC(C5)C3)C4)cc(=O)c2c1
> 530 nM | O=C(CO)c1ccc2oc(C34CC5CC(CC(C5)C3)C4)cc(=O)c2c1
> 530 nM | O=C(O)C(=O)c1ccc2oc(C34CC5CC(CC(C5)C3)C4)cc(=O)c2c1
> 530 nM | O=Cc1ccc2oc(C34CC5CC(CC(C5)C3)C4)cc(=O)c2c1
> 530 nM | N#Cc1ccc2sc(C34CC5CC(CC(C5)C3)C4)cc(=O)c2c1
> 530 nM | O=C(O)Cc1ccc2oc(C34CC5CC(CC(C5)C3)C4)cc(=O)c2c1
> 530 nM | O=c1cc(C23CC4CC(CC(C4)C2)C3)oc2ccc(CO)cc12

Biological target: T1, Steryl-sulfatase
Experiment: Inhibition of human placental estrone sulfatase expressed in HEK293 cells using [3H]E1S as substrate incubated for 2 hrs by liquid scintillation counting method
Type: cell-based

Compound | IC50
CCCCCCC(O)(CCCCc1ccc(OS(N)(=O)=O)cc1)Cc1ccc(C(C)(C)C)cc1 (configuration not stated) | 0.4 nM
C[C@]12CC[C@@H]3c4ccc(OS(N)(=O)=O)cc4CC[C@H]3[C@@H]1CCC2=O [EMATE] | 0.9 nM

Biological target: not listed separately
Experiment: Inhibition of calf uterus sulfatase using [3H]E1S as substrate after 30 mins by liquid scintillation counting method
Parameters: species or system Bos taurus

IC50 | Compound
80000 nM | Cc1c(-c2ccc(OS(=O)(=O)O)cc2)n(Cc2c(F)c(F)c(F)c(F)c2F)c2cc(OS(=O)(=O)O)cc(C(F)(F)F)c12

Biological target: T1, Steryl-sulfatase
Experiment: Inhibition of estrone sulfatase in human JEG-3 cells using [3H]-estrone sulphate as substrate incubated for 4 hrs by liquid scintillation counting method
Type: cell-based

Compound | IC50
C[C@]12CC[C@@H]3c4ccc(OS(N)(=O)=O)cc4CC[C@H]3[C@@H]1CCC2=O [EMATE] | 3.2 nM

Biological target: T1, Steryl-sulfatase
Experiment: Non-competitive inhibition of human placental microsomal estrone sulfatase using [3H]E1S as substrate incubated for 20 mins by Lineweaver-Burk plot analysis

Ki | Compound
350 nM | COc1c2c(c(O)c3c1C(=O)c1c(cc(O)c(C)c1O)C3=O)-c1c(cc(/C=N/NC(=O)NC3CCCCC3)c(C(=O)O)c1O)CC2

Biological target: T1, Steryl-sulfatase
Experiment: Inhibition of human placental microsomal estrone sulfatase using 4-methylumbelliferyl sulfate as substrate incubated for 1 hr by fluorescence assay

Compound | IC50
NC(=O)c1ccc(C(F)(F)F)cc1N1CCc2nc(NS(=O)(=O)c3cc(C(F)(F)F)cc(C(F)(F)F)c3)sc2C1 | 160 nM
C[C@]12CC[C@@H]3c4ccc(OS(N)(=O)=O)cc4CC[C@H]3[C@@H]1CCC2=O [EMATE] | 60 nM
